Results taken from patent publication US20260146038A1, “NOVEL SALT OF DIMETHYL-2,3-DIHYDRO-1H-INDENE DERIVATIVE AND PROCESSES FOR PREPARING THE SAME” (YUHAN CORPORATION, priority 2022, published 2026).

How the values were obtained:
Assay type in all cases: physicochemical
[1] = Stability test (accelerated condition); settings: for Water contents: Karl Fischer; for Water contents / HPLC purity: accelerated condition (40±2° C., 75±5% RH)
Source text: The results obtained by measuring purities (the HPLC purities) and water contents (by Karl Fischer method) are shown in Table 1 below.

[2] = Hygroscopicity evaluation by Dynamic Vapor Sorption (DVS)
[3] = Water-solubility evaluation; settings: 20° C.
[4] = Photostability test according to ICH guideline Q1B; settings: for Water contents: Karl Fischer
Protocol: Photostability tests were carried out according to ICH guideline Q1B. […] The results obtained by measuring purities (the HPLC purities) and water contents (by Karl Fischer method) are shown in Table 2 below.

In the case of CC(C)Oc1ccc(-c2ccc3c(c2)CC(C)(C)C3NC(=O)O[C@@H]2CN3CCC2CC3)cc1Cl (stereo partly drawn) [Compound of WO 2021/096238, (S)-quinuclidin-3-yl (5-(3-chloro-4-isopropoxyphenyl)-2,2-dimethyl-2,3-dihydro-1H-inden-1-yl)carbamate, reference compound], the “stability (form changes) in the accelerated condition” value ([1]; amorphous free base) is reported as “low stability”, the “hygroscopicity (in words)” value ([2]; amorphous free base) is reported as “high hygroscopicity” and the solubility [3] is reported as under 10 µg/mL.
With “((1S,4R)-7,7-dimethyl-2-oxobicyclo[2.2.1]heptan-1-yl)methanesulfonic acid salt of (S)-quinuclidin-3-yl ((R)-5-(3-chloro-4-isopropoxyphenyl)-2,2-dimethyl-2,3-dihydro-1H-inden-1-yl)carbamate [Example 1]” the “difference in the water contents under the accelerated condition” value ([1]; 40±2° C., 75±5% RH, up to 3 months) was at most 1.0%, the “stability by XRD and appearance under the accelerated condition” value ([1]; 40±2° C., 75±5% RH, FIGS. 5 and 6) was “excellent stability” and the Water contents ([1]; 1 month) was 0.32%. For the same compound, the Water contents ([1]; 3 months) was 1.28%, the Water contents ([1]; Initial) was 0.48% and the HPLC purity ([1]; 1 month) was 98.6%. It also gave an HPLC purity ([1]; 3 months) of 98.6%, an HPLC purity ([1]; Initial) of 98.6% and an HPLC purity ([4]; Initial) of 98.6%. For the same compound, the Water contents ([4]; Initial) was 0.48%, the Water contents ([4]; Light exposure (UV light for 10 hours / visible light for 40 hours)) was 0.31% and the HPLC purity ([4]; Light exposure (UV light 20 W/m^2 for 10 hours / visible light 30,000 lux for 40 hours)) was 98.6%. The Moisture adsorption ([2]; weight change, room temperature (about 25° C.), RH 80%, 24 hours) was 2.3%.
